# According to patent US20250230193A1, “CYCLIC COMPOUND HAVING SELECTIVE KRAS INHIBITORY EFFECT ON HRAS AND NRAS” (CHUGAI SEIYAKU KABUSHIKI KAISHA, priority 2022, published 2025):
# *1 amine or outer side, *2 acyl side, *3 side chain or, on linkers, in order; H or OH if unused. Where a SMILES comes first, the peptide text is derived from it. Bridges are numbered along the chain shown (N, C = ends). [ ]: non-standard residue; d: D form. The star is where a group is joined. X24 = O=C([C@H](Cc1ccc(C(F)(F)F)cc1)N(CCC(F)(F)F)[*:1])[*:2]; hPhe(3-Cl-4-CF3) = N[C@@H](CCc1ccc(C(F)(F)F)c(Cl)c1)C(=O)O; NMeGly(cPent) = CN[C@H](C(=O)O)C1CCCC1; NMeD = CN[C@@H](CC(=O)O)C(=O)O; NMeL = CN[C@@H](CC(C)C)C(=O)O; Morpholide = C1CN(*)CCO1; NMeA = CN[C@@H](C)C(=O)O; Ac5c = NC1(C(=O)O)CCCC1; Aze = O=C(O)[C@@H]1CCN1; Sar = CNCC(=O)O
# Legend:
# [1] = target: GDP-bound NRAS wild-type protein (Homo sapiens, UniProt P01111); experiment: Binding to NRAS by surface plasmon resonance (SPR), Single Cycle Kinetics; settings: for NRAS/KRAS (ratio of KD value with respect to GDP-bound NRAS wild-type protein to KD value with respect to KRAS): class symbols; for NRAS/KRAS (ratio of KD value with respect to NRAS to KD value with respect to KRAS): GDP-bound NRAS wild-type vs GDP-bound KRAS wild-type
# [2] = target: GDP-bound HRAS wild-type protein (Homo sapiens, UniProt P01112); experiment: Binding to HRAS by surface plasmon resonance (SPR), Single Cycle Kinetics; settings: for HRAS/KRAS (ratio of KD value with respect to GDP-bound HRAS wild-type protein to KD value with respect to KRAS): class symbols; for HRAS/KRAS (ratio of KD value with respect to HRAS to KD value with respect to KRAS): GDP-bound HRAS wild-type vs GDP-bound KRAS wild-type
# Chain of GDP-bound HRAS wild-type protein (P01112 whole entry): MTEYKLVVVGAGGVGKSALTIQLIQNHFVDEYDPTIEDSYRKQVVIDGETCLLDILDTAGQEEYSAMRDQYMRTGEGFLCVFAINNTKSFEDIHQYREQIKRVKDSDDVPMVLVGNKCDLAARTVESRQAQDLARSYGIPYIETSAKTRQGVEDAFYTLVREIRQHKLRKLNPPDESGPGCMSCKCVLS
# Chain of GDP-bound NRAS wild-type protein (P01111 whole entry): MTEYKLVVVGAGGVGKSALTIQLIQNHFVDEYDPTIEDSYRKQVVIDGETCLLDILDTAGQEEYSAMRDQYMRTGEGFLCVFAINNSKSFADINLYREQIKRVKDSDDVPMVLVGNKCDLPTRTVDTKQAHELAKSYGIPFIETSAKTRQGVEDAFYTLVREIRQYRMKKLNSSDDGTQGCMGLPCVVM
smiles,measurement,setting,value
CC[C@H](C)[C@@H]1NC(=O)[C@H](CC(C)C)N(C)C(=O)C[C@@H](C(=O)N2CCOCC2)N(C)C(=O)[C@H](C2CCCC2)N(C)C(=O)C2(CCCC2)NC(=O)[C@@H]2CCCN2C(=O)[C@H](CCc2ccc(C(F)(F)F)c(Cl)c2)NC(=O)CN(C)C(=O)[C@H](Cc2ccc(C(F)(F)F)cc2)N(CCC(F)(F)F)C(=O)[C@@H]2CCN2C(=O)[C@H](C)N(C)C1=O [PP0117] ([NMeL]I[NMeA][Aze][X24][Sar][hPhe(3-Cl-4-CF3)]P[Ac5c][NMeGly(cPent)][NMeD]-Morpholide; lactam N-11),NRAS/KRAS (ratio of KD for GDP-bound NRAS wild-type to KD for KRAS),"[1]; KD ratio NRAS/KRAS, SPR",B (a compound having 3 or more and less than 10 is denoted as B)
same,HRAS/KRAS (ratio of KD for GDP-bound HRAS wild-type to KD for KRAS),"[2]; KD ratio HRAS/KRAS, SPR",B (a compound having 3 or more and less than 10 is denoted as B)
CCO[C@@H]1C[C@H]2C(=O)NC3(CC(C)(C)C3)C(=O)N(C)[C@@H](CC(C)(C)C)C(=O)N(C)[C@H](C(=O)N(C)C)CC(=O)N(C)[C@@H](COC)C(=O)N[C@@H]([C@@H](C)CC)C(=O)N(C3CC3)CC(=O)N(C)[C@H]3C/C=C\CCN(C3=O)[C@@H](Cc3ccc(C(F)(F)F)cc3)C(=O)N(C)CC(=O)N[C@@H](CCc3ccc(C(F)(F)F)c(OC)c3)C(=O)N2C1 [PP2748],NRAS/KRAS (ratio of KD value with respect to GDP-bound NRAS wild-type protein to KD value with respect to KRAS),[1]; KD ratio NRAS/KRAS,A (a compound having 10 or more and less than 20 is denoted as A)
same,HRAS/KRAS (ratio of KD value with respect to GDP-bound HRAS wild-type protein to KD value with respect to KRAS),[2]; KD ratio HRAS/KRAS,A (a compound having 10 or more and less than 20 is denoted as A)
CCO[C@@H]1C[C@H]2C(=O)NC3(CCC3)C(=O)N(C)[C@@H](C3CCCC3)C(=O)N(C)[C@H](C(=O)N(C)C)CC(=O)N(C)[C@@H](CC)C(=O)N[C@@H]([C@@H](C)CC)C(=O)N(C)CC(=O)N(C)[C@H]3CCCCCN(C3=O)[C@@H](Cc3nccs3)C(=O)N(C)CC(=O)N[C@@H](CCc3cc(F)c(C(F)(F)F)c(F)c3)C(=O)N2C1 [PP0913],NRAS/KRAS (ratio of KD value with respect to NRAS to KD value with respect to KRAS),"[1]; KD ratio, SPR",B (a compound having 3 or more and less than 10 is denoted as B)
same,HRAS/KRAS (ratio of KD value with respect to HRAS to KD value with respect to KRAS),"[2]; KD ratio, SPR",B (a compound having 3 or more and less than 10 is denoted as B)
CCOC[C@H]1C(=O)N[C@@H]([C@@H](C)CC)C(=O)N(C)CC(=O)N(C)[C@H]2C/C=C\CCN(C2=O)[C@@H](Cc2ccc(C(F)(F)F)cc2)C(=O)N(C)CC(=O)N[C@@H](CCc2cc(F)c(C(F)(F)F)c(F)c2)C(=O)N2C[C@H](OCC)C[C@H]2C(=O)NC2(CC(C)(C)C2)C(=O)N(C)[C@@H](CC2CCC2)C(=O)N(C)[C@H](C(=O)N(C)C)CC(=O)N1C [PP2763],NRAS/KRAS (ratio of KD value with respect to GDP-bound NRAS wild-type protein to KD value with respect to KRAS),[1]; KD ratio NRAS/KRAS,A (a compound having 10 or more and less than 20 is denoted as A)
same,HRAS/KRAS (ratio of KD value with respect to GDP-bound HRAS wild-type protein to KD value with respect to KRAS),[2]; KD ratio HRAS/KRAS,A (a compound having 10 or more and less than 20 is denoted as A)
CCO[C@@H]1C[C@H]2C(=O)NC3(CCC3)C(=O)N(C)[C@@H](C3CCCC3)C(=O)N(C)[C@H](C(=O)N(C)C)CC(=O)N(C)[C@@H](CC)C(=O)N[C@@H]([C@@H](C)CC)C(=O)N(C)CC(=O)N(C)[C@H]3CCCCCN(C3=O)[C@@H](Cc3ccc(F)cc3C)C(=O)N(C)CC(=O)N[C@@H](CCc3cc(F)c(C(F)(F)F)c(F)c3)C(=O)N2C1 [PP0911],NRAS/KRAS (ratio of KD value with respect to NRAS to KD value with respect to KRAS),"[1]; KD ratio, SPR",B (a compound having 3 or more and less than 10 is denoted as B)
same,HRAS/KRAS (ratio of KD value with respect to HRAS to KD value with respect to KRAS),"[2]; KD ratio, SPR",B (a compound having 3 or more and less than 10 is denoted as B)
CC[C@H](C)[C@@H]1NC(=O)[C@H](CC)N(C)C(=O)C[C@@H](C(=O)N(C)C)N(C)C(=O)[C@H](C2CCCC2)N(C)C(=O)C2(CCC2)NC(=O)[C@H](C)N(C)C(=O)[C@H](CCc2cc(F)c(C(F)(F)F)c(F)c2)NC(=O)CN(C)C(=O)[C@H](Cc2ccc(C(F)(F)F)cc2)N2CC/C=C\C[C@@H](C2=O)N(C)C(=O)CN(C)C1=O [PP1146],NRAS/KRAS (ratio of KD value with respect to NRAS to KD value with respect to KRAS),"[1]; KD ratio, SPR",A (a compound having 10 or more and less than 20 is denoted as A)
same,HRAS/KRAS (ratio of KD value with respect to HRAS to KD value with respect to KRAS),"[2]; KD ratio, SPR",B (a compound having 3 or more and less than 10 is denoted as B)
CCC[C@H]1C(=O)N[C@@H]([C@@H](C)CC)C(=O)N2CCC[C@H]2C(=O)N(C)[C@H]2C/C=C\CCN(C2=O)[C@@H](CC2CCCCC2)C(=O)N(C)CC(=O)N[C@@H](CCc2ccc(C(F)(F)F)c(OC)c2)C(=O)N2C[C@H](OCC)C[C@H]2C(=O)N(C)C2(CCC2)C(=O)N(C)[C@@H](C2CCCC2)C(=O)N(C)[C@H](C(=O)N(C)C)CC(=O)N1C [PP2344],NRAS/KRAS (ratio of KD value with respect to NRAS to KD value with respect to KRAS),[1]; SPR,A (a compound having 10 or more and less than 20 is denoted as A)
same,HRAS/KRAS (ratio of KD value with respect to HRAS to KD value with respect to KRAS),[2]; SPR,A (a compound having 10 or more and less than 20 is denoted as A)
